Key:
[1] = tested on: 60 different human tumor cell lines; assay: NCI Development Therapeutics Program 60 cell line screen, one dose; assay type: cell-based
SK-MEL-25 = assay: Melanoma cytotoxicity assay (resazurin); assay type: cell-based; conditions: SK-MEL-25 melanoma cells, resazurin
How it was run: (§1)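 Viability read by resazurin fluorescence (ex 544, em 590 nm) after 6 h, following 24 h compound exposure of cells plated 24 h earlier (~4000/well). Triplicate means, minus medium blank, divided by DMSO control; IC50 derived from sigmoidal dose-response curves.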

SK-MEL-28 = assay: Melanoma cytotoxicity assay (resazurin); assay type: cell-based; conditions: SK-MEL-28 melanoma cells, resazurin
How it was run: as §1

HCT-15 (Colon Cancer) = assay: NCI 60 one dose screen; assay type: cell-based, human
RPMI-8226 = assay: NCI 60 five dose screen
SR = assay: NCI 60 five dose screen
[2] = 24 hours with compound, concentration not given
[3] = RPMI-8226 (Leukemia), five dose

(1S,2R,13R,14S,18S)-7-(3-fluoroanilino)-2,18-dimethyl-6-thia-8-azapentacyclo[11.7.0.02,10.05,9.014,18]icosa-5(9),7,10-trien-17-one [IIa.8]
Growth Percent ([1]; Breast Cancer, BT-549): −8.61% | Growth Percent ([1]; Breast Cancer, HS 578T): 35.44% | Growth Percent ([1]; Breast Cancer, MCF7): 4.46% | Growth Percent ([1]; Breast Cancer, MDA-MB-231/ATCC): 38.20% | Growth Percent ([1]; Breast Cancer, MDA-MB-468): −2.99% | Growth Percent ([1]; Breast Cancer, T-47D): −0.76% | Growth Percent ([1]; CNS Cancer, SF-268): 55.66% | Growth Percent ([1]; CNS Cancer, SNB-19): 62.83% | Growth Percent ([1]; CNS Cancer, SNB-75): 18.66% | Growth Percent ([1]; CNS Cancer, U251): 15.66% | Growth Percent ([1]; Colon Cancer, COLO 205): 47.59% | Growth Percent ([1]; Colon Cancer, HCC-2998): 75.50% | Growth Percent ([1]; Colon Cancer, HCT-116): −68.78% | Growth Percent ([1]; Colon Cancer, HT29): −3.32% | Growth Percent ([1]; Colon Cancer, KM12): 38.74% | Growth Percent ([1]; Colon Cancer, SW-620): 4.62% | Growth Percent ([1]; Leukemia, CCRF-CEM): 4.95% | Growth Percent ([1]; Leukemia, HL-60(TB)): 8.58% | Growth Percent ([1]; Leukemia, K-562): −0.51% | Growth Percent ([1]; Leukemia, MOLT-4): −3.78% | Growth Percent ([1]; Leukemia, RPMI-8226): −22.26% | Growth Percent ([1]; Leukemia, SR): −11.87% | Growth Percent ([1]; Melanoma, LOX IMVI): 6.22% | Growth Percent ([1]; Melanoma, M14): 44.82% | Growth Percent ([1]; Melanoma, MALME-3M): 22.82% | Growth Percent ([1]; Melanoma, MDA-MB-435): 35.93% | Growth Percent ([1]; Melanoma, SK-MEL-2): 21.81% | Growth Percent ([1]; Melanoma, SK-MEL-5): 32.06% | Growth Percent ([1]; Melanoma, SK-MEL-28): 39.44% | Growth Percent ([1]; Melanoma, UACC-62): 37.50% | Growth Percent ([1]; Melanoma, UACC-257): 73.04% | Growth Percent ([1]; Non-small Cell Lung Cancer, A549/ATCC): 35.39% | Growth Percent ([1]; Non-small Cell Lung Cancer, EKVX): 46.43% | Growth Percent ([1]; Non-small Cell Lung Cancer, HOP-62): 20.40% | Growth Percent ([1]; Non-small Cell Lung Cancer, HOP-92): 68.93% | Growth Percent ([1]; Non-small Cell Lung Cancer, NCI-H23): 55.09% | Growth Percent ([1]; Non-small Cell Lung Cancer, NCI-H226): 71.91% | Growth Percent ([1]; Non-small Cell Lung Cancer, NCI-H322M): 55.83% | Growth Percent ([1]; Non-small Cell Lung Cancer, NCI-H460): 51.98% | Growth Percent ([1]; Ovarian Cancer, IGROV1): 60.02% | Growth Percent ([1]; Ovarian Cancer, NCI/ADR-RES): 55.43% | Growth Percent ([1]; Ovarian Cancer, OVCAR-3): −5.24% | Growth Percent ([1]; Ovarian Cancer, OVCAR-4): 59.21% | Growth Percent ([1]; Ovarian Cancer, OVCAR-5): 65.53% | Growth Percent ([1]; Ovarian Cancer, OVCAR-8): 39.56% | Growth Percent ([1]; Ovarian Cancer, SK-OV-3): −18.44% | Growth Percent ([1]; Prostate Cancer, DU-145): 17.23% | Growth Percent ([1]; Renal Cancer, 786-0): −13.93% | Growth Percent ([1]; Renal Cancer, A498): 22.95% | Growth Percent ([1]; Renal Cancer, ACHN): 1.56% | Growth Percent ([1]; Renal Cancer, CAKI-1): 50.45% | Growth Percent ([1]; Renal Cancer, RXF 393): −28.44% | Growth Percent ([1]; Renal Cancer, SN12C): 28.50% | Growth Percent ([1]; Renal Cancer, TK-10): 20.27% | Growth Percent ([1]; Renal Cancer, UO-31): −26.89% | SK-MEL-25 (% inhibition) (SK-MEL-25; [2]): 88% | IC50 (SK-MEL-25; 24 hours, read-out: SK-MEL-25 (IC50)): 10 µM | SK-MEL-28 (% inhibition) (SK-MEL-28; [2]): 90% | IC50 (SK-MEL-28; 24 hours): > 20 µM | Growth Percent (HCT-15 (Colon Cancer)): 6.88% | GI50 (RPMI-8226; [3]): 0.859 µM | TGI (RPMI-8226; [3]): 3.90E−6 | 50% growth inhibition (GI50) (RPMI-8226; leukemia cell line RPMI-8226): submicromolar | CC50 (RPMI-8226; read-out: LC50, RPMI-8226 (Leukemia), five dose): > 100 µM | GI50 (SR; SR (Leukemia), five dose): 0.859 µM | 50% growth inhibition (GI50) (SR; leukemia cell line SR): submicromolar | CC50 (SR; read-out: LC50, SR (Leukemia), five dose): > 100 µM
